Legend:
[1] = system: MCF-7 human breast cancer cells; experiment: AlamarBlue cell viability assay; assay type: cell-based; conditions: for IC50: MCF-7, 72 h
Procedure: The antiproliferative potential of the synthesised 3-fluoro β-lactams 26–35 and 3,3-difluoro β-lactams 36–45 was evaluated in MCF-7 human breast cancer cells using the AlamarBlue assay, with CA-4 as reference compound (Figure 3). […] The results for the preliminary in vitro antiproliferative screen for 3-fluoro β-lactam compounds (26–29), which contain different substituents at the para position in the B ring, are presented in Figure 3A.
Cells were seeded at a density of 5 × 10^3 cells/well (MCF-7 and MDA-MB-231) and 1 × 10^4 cells/well (HEK-293T) in 96-well plates (200 μL per well). After 24 h, cells were then treated with medium alone, with vehicle (1% ethanol (v/v)) or with CA-4 or β-lactam compounds at 1 μM and 10 μM concentrations. […] Cell proliferation for MCF-7 cells was analysed with the AlamarBlue assay (Invitrogen Corp.) as previously described by us. After 72 h, AlamarBlue (10% (v/v)) was added to each well, and plates were incubated for 3–5 h at 37 °C in the dark. Fluorescence results were obtained with a 96-well fluorimeter with excitation at 530 nm and emission at 590 nm with results recorded as percentage viability relative to vehicle control (100%). Dose–response curves were obtained and IC50 values (concentration of drug resulting in 50% reduction in cell survival) were calculated using Prism (GraphPad Software, Inc., La Jolla, CA, USA).
Figure 3 Preliminary cell viability data for 3-fluoro and 3,3-difluoro β-lactam compounds. (A) 3-Fluoro β-lactam compounds containing different para-substituent ring B 26–29; 3-fluoro β-lactam compounds containing different meta-substituent ring B 30, 32–35; (B) 3-difluoro β-lactam compounds containing different para-substituent ring B 36–39; 3-difluoro β-lactam compounds containing different meta-substituent ring B 40, 42–45 in MCF-7 breast cancer cells. Cell proliferation of MCF-7 cells was determined with an AlamarBlue assay (seeding density […] for 96-well plates). Compound concentrations of either 10 μM or 1 μM for 72 h were used to treat the cells with control wells containing vehicle ethanol (1% v/v) and CA-4 (10 μM and 1 μM). The mean value for three experiments is shown with the ± S.E.M. for three independent experiments.

A498 = experiment: NCI 60 cell line screen, Renal; assay type: cell-based, human
HCT-116 = experiment: NCI 60 cell line screen, Colon; assay type: cell-based, human
MDA-MB-435 = experiment: NCI 60 cell line screen, Melanoma; assay type: cell-based, human
SNB-19 = experiment: NCI 60 cell line screen, CNS; assay type: cell-based, human
UACC-62 = experiment: NCI 60 cell line screen, Melanoma; assay type: cell-based, human
NCI-H522 = experiment: NCI 60 cell line screen, NSCLung; assay type: cell-based, human
HS 578T = experiment: NCI 60 cell line screen, Breast; assay type: cell-based, human
A549/A TCC = experiment: NCI 60 cell line screen, NSCLung; assay type: cell-based, human
OVCAR-5 = experiment: NCI 60 cell line screen, Ovarian; assay type: cell-based, human
ACHN = experiment: NCI 60 cell line screen, Renal; assay type: cell-based, human; conditions: one dose 10 µM
RPMI-8226 = experiment: NCI 60 cell line screen, Leukaemia; assay type: cell-based, human
MDA-MB-468 = experiment: NCI 60 cell line screen, Breast; assay type: cell-based, human
786–0 = experiment: NCI 60 cell line screen, Renal; assay type: cell-based, human
MOLT-4 = experiment: NCI 60 cell line screen, Leukaemia; assay type: cell-based, human
TK-10 = experiment: NCI 60 cell line screen, Renal; assay type: cell-based, human
IGROV1 = experiment: NCI 60 cell line screen, Ovarian; assay type: cell-based, human
OVCAR-8 = experiment: NCI 60 cell line screen, Ovarian; assay type: cell-based, human
MCF7 = experiment: NCI 60 cell line screen, Breast; assay type: cell-based, human
LOX IMVI = experiment: NCI 60 cell line screen, Melanoma; assay type: cell-based, human
SW-620 = experiment: NCI 60 cell line screen, Colon; assay type: cell-based, human
NCI-H23 = experiment: NCI 60 cell line screen, NSCLung; assay type: cell-based, human
SNB-75 = experiment: NCI 60 cell line screen, CNS; assay type: cell-based, human
SF-295 = experiment: NCI 60 cell line screen, CNS; assay type: cell-based, human
MDA-MB-231/ATCC = experiment: NCI 60 cell line screen, Breast; assay type: cell-based, human

COc1ccc(/C=C\c2cc(OC)c(OC)c(OC)c2)cc1O [CA-4, combretastatin A-4, reference compound]
IC50 ([1]; Homo sapiens, MCF7, 72 h): 3 nM
IC50 [1]: 3.5 nM

COc1ccc(C2C(F)C(=O)N2c2cc(OC)c(OC)c(OC)c2)cc1F (stereo not shown) [Compound 33, 3-Fluoro-4-(3-fluoro-4-methoxyphenyl)-1-(3,4,5-trimethoxyphenyl)azetidin-2-one]
TGI (A498; 5-dose, 48 h): 8080 nM
GI50 (A498; Homo sapiens, 5-dose, 48 h): 847 nM
inhibition at 10 µM (A498; Homo sapiens, one dose 10 µM): 106%
Growth % (A498; one dose 10 µM): -5.5%
TGI (HCT-116; 5-dose, 48 h): >100000 nM
GI50 (HCT-116; Homo sapiens, 5-dose, 48 h): 32.5 nM
inhibition at 10 µM (HCT-116; Homo sapiens, one dose 10 µM): 94.4%
Growth % (HCT-116; one dose 10 µM): 5.59%
GI50 (MDA-MB-435; Homo sapiens, 5-dose, 48 h): 29.1 nM
inhibition at 10 µM (MDA-MB-435; Homo sapiens, one dose 10 µM): 99.7%
Growth % (MDA-MB-435; one dose 10 µM): 0.35%
TGI (SNB-19; 5-dose, 48 h): >100000 nM
GI50 (SNB-19; Homo sapiens, 5-dose, 48 h): 302 nM
inhibition at 10 µM (SNB-19; Homo sapiens, one dose 10 µM): 66%
Growth % (SNB-19; one dose 10 µM): 34.05%
TGI (UACC-62; 5-dose, 48 h): >100000 nM
inhibition at 10 µM (UACC-62; Homo sapiens, one dose 10 µM): 46.5%
Growth % (UACC-62; one dose 10 µM): 53.45%
GI50 (NCI-H522; 5-dose, 48 h): 38.3 nM
TGI (NCI-H522; 5-dose, 48 h): >100000 nM
GI50 (NCI-H522; Homo sapiens, NCI-H522, 48 h, 5-dose, 48 h): 38 nM
inhibition at 10 µM (NCI-H522; Homo sapiens, one dose 10 µM): 108%
Growth % (NCI-H522; one dose 10 µM): -8.46%
viability at 1 µM ([1]; Homo sapiens, MCF7, 72 h, MCF-7, 1 μM, 72 h, read-out: viable cells remaining): 37%
IC50 ([1]; Homo sapiens, MCF7, 72 h): 95 nM
TGI (HS 578T; 5-dose, 48 h): >100000 nM
GI50 (HS 578T; Homo sapiens, 5-dose, 48 h): 295 nM
inhibition at 10 µM (HS 578T; Homo sapiens, one dose 10 µM): 74.5%
Growth % (HS 578T; one dose 10 µM): 25.54%
TGI (A549/A TCC; 5-dose, 48 h): >100000 nM
GI50 (A549/A TCC; Homo sapiens, 5-dose, 48 h): 394 nM
inhibition at 10 µM (A549/A TCC; Homo sapiens, one dose 10 µM): 84.7%
Growth % (A549/A TCC; one dose 10 µM): 15.33%
TGI (OVCAR-5; 5-dose, 48 h): >100000 nM
GI50 (OVCAR-5; Homo sapiens, 5-dose, 48 h): 423 nM
inhibition at 10 µM (OVCAR-5; Homo sapiens, one dose 10 µM): 56.4%
Growth % (OVCAR-5; one dose 10 µM): 43.57%
inhibition at 10 µM (ACHN; Homo sapiens): 67.3%
Growth % (ACHN): 32.67%
TGI (RPMI-8226; 5-dose, 48 h): 37300 nM
GI50 (RPMI-8226; Homo sapiens, 5-dose, 48 h): 55 nM
inhibition at 10 µM (RPMI-8226; Homo sapiens, one dose 10 µM): 84.7%
Growth % (RPMI-8226; one dose 10 µM): 15.32%
GI50 (MDA-MB-468; Homo sapiens, 5-dose, 48 h): 106 nM
inhibition at 10 µM (MDA-MB-468; Homo sapiens, one dose 10 µM): 77%
Growth % (MDA-MB-468; one dose 10 µM): 23%
Growth % (786–0; 786-0, one dose 10 µM): 22.92%
TGI (786–0; 786–0, 5-dose, 48 h): 15100 nM
inhibition at 10 µM (786–0; Homo sapiens, 786-0, one dose 10 µM): 77.1%
GI50 (786–0; Homo sapiens, 786–0, 5-dose, 48 h): 46.2 nM
TGI (MOLT-4; 5-dose, 48 h): 93400 nM
GI50 (MOLT-4; Homo sapiens, 5-dose, 48 h): 146 nM
inhibition at 10 µM (MOLT-4; Homo sapiens, one dose 10 µM): 80.3%
Growth % (MOLT-4; one dose 10 µM): 19.7%
TGI (TK-10; 5-dose, 48 h): >100000 nM
GI50 (TK-10; Homo sapiens, 5-dose, 48 h): 38600 nM
inhibition at 10 µM (TK-10; Homo sapiens, one dose 10 µM): 35.6%
Growth % (TK-10; one dose 10 µM): 64.4%
TGI (IGROV1; 5-dose, 48 h): >100000 nM
GI50 (IGROV1; Homo sapiens, IGROV-1, 5-dose, 48 h): 94.6 nM
inhibition at 10 µM (IGROV1; Homo sapiens, IGROV-1, one dose 10 µM): 68.1%
Growth % (IGROV1; one dose 10 µM): 31.88%
TGI (OVCAR-8; 5-dose, 48 h): >100000 nM
GI50 (OVCAR-8; Homo sapiens, 5-dose, 48 h): 368 nM
inhibition at 10 µM (OVCAR-8; Homo sapiens, one dose 10 µM): 86.3%
Growth % (OVCAR-8; one dose 10 µM): 13.71%
inhibition at 10 µM (MCF7; Homo sapiens, MCF7, MCF7, one dose 10 µM): 87.2%
GI50 (MCF7; Homo sapiens, MCF7, 5-dose, 48 h): 36.4 nM
TGI (MCF7; MCF7, 5-dose, 48 h): >100000 nM
Growth % (MCF7; MCF7, one dose 10 µM): 12.83%
Inhibition % (MCF7; MCF7, one dose 10 µM): 87.2%
TGI (LOX IMVI; 5-dose, 48 h): >100000 nM
GI50 (LOX IMVI; Homo sapiens, 5-dose, 48 h): 90.4 nM
inhibition at 10 µM (LOX IMVI; Homo sapiens, one dose 10 µM): 76%
Growth % (LOX IMVI; one dose 10 µM): 23.98%
TGI (SW-620; 5-dose, 48 h): >100000 nM
GI50 (SW-620; Homo sapiens, 5-dose, 48 h): 56.2 nM
inhibition at 10 µM (SW-620; Homo sapiens, one dose 10 µM): 71.3%
Growth % (SW-620; one dose 10 µM): 28.73%
TGI (NCI-H23; 5-dose, 48 h): >100000 nM
GI50 (NCI-H23; Homo sapiens, 5-dose, 48 h): 273 nM
inhibition at 10 µM (NCI-H23; Homo sapiens, one dose 10 µM): 78.7%
Growth % (NCI-H23; one dose 10 µM): 21.3%
TGI (SNB-75; 5-dose, 48 h): >100000 nM
GI50 (SNB-75; Homo sapiens, 5-dose, 48 h): > 100000 nM
inhibition at 10 µM (SNB-75; Homo sapiens, one dose 10 µM): 49.1%
Growth % (SNB-75; one dose 10 µM): 50.89%
TGI (SF-295; 5-dose, 48 h): >100000 nM
GI50 (SF-295; Homo sapiens, 5-dose, 48 h): 53.5 nM
inhibition at 10 µM (SF-295; Homo sapiens, one dose 10 µM): 81.4%
Growth % (SF-295; one dose 10 µM): 18.61%
TGI (MDA-MB-231/ATCC; 5-dose, 48 h): >100000 nM
GI50 (MDA-MB-231/ATCC; Homo sapiens, 5-dose, 48 h): 355 nM
inhibition at 10 µM (MDA-MB-231/ATCC; Homo sapiens, one dose 10 µM): 80.3%
Growth % (MDA-MB-231/ATCC; one dose 10 µM): 19.65%

From publication PMC9501633, “Synthesis, Characterisation and Mechanism of Action of Anticancer 3-Fluoroazetidin-2-ones” (Pharmaceuticals, 2022)
